Read-outs that look alike come from different tables or passages of the source.
System: LPS-stimulated pERK in monocytes (TPL2 pathway)
Assay: Ex vivo LPS-stimulated pERK in monocytes of whole blood after Compound 1 dosing (flow cytometry)
Parameters: species or system human
Conditions: for inhibition at 75 mg: Homo sapiens, Monocyte, 75 mg QD multiple dose, read-out: pERK Signal, % Inhibition
Method: For Cohorts 1-4, whole blood PD sampling occurred relative to the dose of Compound 1 at the following time points: • Day 1: 0 pre-dose (≤5 min prior to dosing), 1, 2, 3, 4, 8, 12, 24 and 36 hours post-dose
For Cohorts 5-9, whole blood PD sampling occurred relative to the dose of Compound 1 at the following time points: • Day 1: 0 pre-dose (≤5 min prior to dosing), 1, 2, 3, 4, 8, 12, and 24 hours post-dose • Day 10: 0 pre-dose (≤5 min prior to dosing), 1, 2, 3, 4, 8, 12, 24, 36, 48, 72, 96, and 120 hours post-dose
Whole blood PD Samples were stimulated ex vivo with lipopolysaccharide (LPS) or phosphate buffered saline (PBS), and the phosphorylation of extracellular signal-related kinase (pERK) was detected in monocytes by flow cytometry.
Pharmacodynamic changes after single and multiple doses of Compound 1 were also investigated by monitoring, in whole blood samples, stimulated with either lipopolysaccharide (LPS) or PBS for 15 minutes at 37° C. Changes to the phosphorylation of extracellular signal-regulated kinases (pERK) was measured in monocytes by flow cytometry, defined as CD15−CD14+.
Pharmacodynamic parameters for Compound 1 were calculated as percent change in pERK signal relative to Day 1 pre-dose (baseline) for all evaluable participants.
Multiple Ascending Doses: Pharmacodynamic parameters after multiple doses of Compound 1 were also calculated as percent change in pERK signal relative to Day 1 pre-dose (baseline) for all evaluable participants.

In the case of `Cn1ccc2c([C@@H](c3cn(C45CC(C4)C5)nn3)N(C(=O)OCOP(=O)(O)O)c3cc(Cl)c4ncc(C#N)c(NCC(C)(C)C)c4c3)cccc2c1=O` [Compound 1], the “median percent change in pERK relative to baseline” value (75 mg QD, Day 10, 12 hours post-last dose) is reported as −48.3%, the “median percent change in pERK relative to baseline” value (75 mg QD, Day 10, 24 hours post last dose) is reported as −39.8% and the “median change in pERK relative to baseline” value (75 mg single dose, 3 hours post-dose) is reported as −86.8%. The “median change in pERK relative to baseline” value (75 mg single dose, 12 hours post-dose) was −51.3%, the “pERK Signal, % Inhibition” value (75 mg single dose, Day 1 1 hour, mean (SD)) was 56.4 (13.04) % and the “pERK Signal, % Inhibition” value (75 mg single dose, Day 1 1 hour, median) was 62.9%. For the same molecule, the “pERK Signal, % Inhibition” value (75 mg single dose, Day 1 3 hours, mean (SD)) was 82.7 (10.42) %, the “pERK Signal, % Inhibition” value (75 mg single dose, Day 1 3 hours, median) was 86.8% and the “pERK Signal, % Inhibition” value (75 mg single dose, Day 1 12 hours, mean (SD)) was 52.2 (6.53) %. The “pERK Signal, % Inhibition” value (75 mg single dose, Day 1 12 hours, median) was 51.3%, the “pERK Signal, % Inhibition” value (75 mg single dose, Day 1 24 hours, mean (SD)) was 33.6 (4.73) % and the “pERK Signal, % Inhibition” value (75 mg single dose, Day 1 24 hours, median) was 33.6%. For the same molecule, the “median percent change in pERK relative to baseline” value (300 mg QD, Day 10, 12 hours post-last dose) was −95.7%, the “median percent change in pERK relative to baseline” value (300 mg QD, Day 10, 24 hours post last dose) was −91.6% and the “median change in pERK relative to baseline” value (300 mg single dose, 3 hours post-dose) was −95.6%. For the same molecule, the “median change in pERK relative to baseline” value (300 mg single dose, 12 hours post-dose) was −76.6%, the “pERK Signal, % Inhibition” value (300 mg single dose, Day 1 1 hour, mean (SD)) was 32.2 (35.11) % and the “pERK Signal, % Inhibition” value (300 mg single dose, Day 1 1 hour, median) was 29.1%. For the same molecule, the “pERK Signal, % Inhibition” value (300 mg single dose, Day 1 3 hours, mean (SD)) was 93.4 (5.08) %, the “pERK Signal, % Inhibition” value (300 mg single dose, Day 1 3 hours, median) was 95.6% and the “pERK Signal, % Inhibition” value (300 mg single dose, Day 1 12 hours, mean (SD)) was 76.0 (7.04) %. For the same molecule, the “pERK Signal, % Inhibition” value (300 mg single dose, Day 1 12 hours, median) was 76.7%, the “pERK Signal, % Inhibition” value (300 mg single dose, Day 1 24 hours, mean (SD)) was 66.4 (2.19) % and the “pERK Signal, % Inhibition” value (300 mg single dose, Day 1 24 hours, median) was 65.3%. For the same molecule, the “median percent change in pERK relative to baseline” value (600 mg BID, Day 10, 12 hours post-last dose) was −100.2%, the “median percent change in pERK relative to baseline” value (600 mg BID, Day 10, 24 hours post last dose) was −101.5% and the “median percent change in pERK relative to baseline” value (900 mg QD, Day 10, 12 hours post-last dose) was −96.7%. The “median percent change in pERK relative to baseline” value (900 mg QD, Day 10, 24 hours post last dose) was −98.5%, the “median change in pERK relative to baseline” value (900 mg single dose, 3 hours post-dose) was −99.9% and the “median change in pERK relative to baseline” value (900 mg single dose, 12 hours post-dose) was −92.1%. The “pERK Signal, % Inhibition” value (900 mg single dose, Day 1 1 hour, mean (SD)) was 74.5 (38.94) %, the “pERK Signal, % Inhibition” value (900 mg single dose, Day 1 1 hour, median) was 97.9% and the “pERK Signal, % Inhibition” value (900 mg single dose, Day 1 3 hours, mean (SD)) was 99.8 (2.98) %. The “pERK Signal, % Inhibition” value (900 mg single dose, Day 1 12 hours, mean (SD)) was 92.7 (3.10) %, the “pERK Signal, % Inhibition” value (900 mg single dose, Day 1 12 hours, median) was 92.1% and the “pERK Signal, % Inhibition” value (900 mg single dose, Day 1 24 hours, mean (SD)) was 83.6 (7.00) %. For the same molecule, the “pERK Signal, % Inhibition” value (900 mg single dose, Day 1 24 hours, median) was 85.8%, the “median change in pERK relative to baseline” value (1500 mg single dose, 3 hours post-dose) was −99% and the “median change in pERK relative to baseline” value (1500 mg single dose, 12 hours post-dose) was −96.3%. For the same molecule, the “pERK Signal, % Inhibition” value (1500 mg single dose, Day 1 1 hour, mean (SD)) was 74.8 (45.62) %, the “pERK Signal, % Inhibition” value (1500 mg single dose, Day 1 1 hour, median) was 97.3% and the “pERK Signal, % Inhibition” value (1500 mg single dose, Day 1 3 hours, mean (SD)) was 92.8 (16.61) %. For the same molecule, the “pERK Signal, % Inhibition” value (1500 mg single dose, Day 1 3 hours, median) was 99.0%, the “pERK Signal, % Inhibition” value (1500 mg single dose, Day 1 12 hours, mean (SD)) was 93.0 (6.35) % and the “pERK Signal, % Inhibition” value (1500 mg single dose, Day 1 12 hours, median) was 96.3%. The “pERK Signal, % Inhibition” value (1500 mg single dose, Day 1 24 hours, mean (SD)) was 94.4 (2.50) %, the “pERK Signal, % Inhibition” value (1500 mg single dose, Day 1 24 hours, median) was 94.2% and the “time of maximum PD effect” value (Day 10 of multiple doses, post-last dose) was 2 to 4 h. For the same molecule, the inhibition at 75 mg (Day 1 1 hour, mean (SD)) was 47.9%, the inhibition at 75 mg (Day 1 1 hour, median) was 44.9% and the inhibition at 75 mg (Day 1 3 hours, mean (SD)) was 67.5%. For the same molecule, the inhibition at 75 mg (Day 1 3 hours, median) was 79.6%, the inhibition at 75 mg (Day 1 12 hours, mean (SD)) was 26.1% and the inhibition at 75 mg (Day 1 12 hours, median) was 32.4%. For the same molecule, the inhibition at 75 mg (Day 10 1 hour, mean (SD)) was 62.2%, the inhibition at 75 mg (Day 10 1 hour, median) was 62.7% and the inhibition at 75 mg (Day 10 3 hours, mean (SD)) was 85.4%. For the same molecule, the inhibition at 75 mg (Day 10 3 hours, median) was 88.3%, the inhibition at 75 mg (Day 10 12 hours, mean (SD)) was 43.5% and the inhibition at 75 mg (Day 10 12 hours, median) was 48.3%. For the same molecule, the inhibition at 75 mg (Day 10 24 hours, mean (SD)) was 12.6% and the inhibition at 75 mg (Day 10 24 hours, median) was 39.8%.

From patent US20250213550A1, “COMPOUNDS AND METHODS FOR TREATING INFLAMMATORY BOWEL DISEASE” (Gilead Sciences, Inc., priority 2023, published 2025)
